Test results: patent US20230181570A1, “Transdermal Formulation Containing Apomorphine” (MEDRX CO., LTD., priority 2020, published 2023)
Counter-ions that a name gives are not always drawn.

Experiment: Study of the solubility of apomorphine hydrochloride in various solvents

SMILES: CN1CCc2cccc3c2[C@H]1Cc1ccc(O)c(O)c1-3 [apomorphine hydrochloride]
- solubility (each used alone: water, 1,3-butanediol, polyethylene glycol, propylene glycol, glycerin, propylene carbonate): ≤ 3 % by weight
- apomorphine hydrochloride solution able to be prepared (low molecular weight polyethylene glycol combined with propylene carbonate): 8 % by weight
- solubility in propylene carbonate (propylene carbonate used alone): 0.25 % by weight
- apomorphine hydrochloride solution able to be prepared (propylene glycol and propylene carbonate, weight of propylene glycol five times or more that of propylene carbonate): 10 % by weight
